Measured values: patent US20110268818A1, “NGAL-BINDING SIDEROPHORES AND USE THEREOF TO TREAT IRON DEFICIENCY AND IRON OVERLOAD” (priority 2008, published 2011)
Counter-ions that a name gives are not always drawn.

Key:
NGAL [1] = biological target: T1, NGAL (Homo sapiens, UniProt P80188); experiment: Release of ligands and iron from NGAL complexes by acidification; assay type: physicochemical; settings: fluorescence and 55Fe release
T1 construct: made in house; host or cells: E. coli BL-21
Source text: FIGS. 6A-6C. Release of ligands from NGAL by acidification. […] Fluorescence was quenched by ligand binding. Upon acidification, the ligands were released and fluorescence returned to baseline. Subsequent basification, where relevant, caused rebinding. Note that NGAL:pyrogallol and 2,3-dihydroxybenzoic acid complexes required much lower pH for dissociation. (B) Release of ^55Fe from different NGAL:catecholate complexes by low pH washes on a 10 KDa microcon. For this comparison, the retention of iron at pH7.0 was defined as 100%. […] Data were presented as mean±Std.
To transport iron from plasma to cells there has to be a mechanism for releasing iron from the complex. Intracellular delivery of iron by transferring is known to require passage through acidified endosomes where iron is released. […] While the complex was stable at neutral pH, acidification below pH 7.0 progressively reversed ligand-dependent fluorescence quenching of NGAL and released iron (FIG. 6A, B).
Fluorescence quenching binding assay. […] The pH was adjusted until the fluorescence signal stopped changing, while fluorescence values were corrected for dilution. Data were analyzed by a nonlinear regression analysis using a one-site binding model (Kuzmic, P. (1996). Program DYNAFIT for the analysis of enzyme kinetic data: application to HIV proteinase. Anal. Biochem. 237, 260-273). […]

NGAL [2] = biological target: T1, NGAL; experiment: NGAL:siderophore:iron binding assay (retention on 10 kDa filter); settings: for NGAL: Chelator: Fe % Retention: apoNGAL 10 μM, 55Fe, compound 10 μM, pH 7.4, washed on 10 kDa filter; for NGAL-siderophore-Fe binding activity (in words): iron retention by NGAL on filter
Protocol: NGAL:Siderophore:Iron Binding Assays. […] After 60 minutes, the mixture was washed 3 times (YM-10) or alternatively gel filtered (PD-10, GE Biosciences). Ent loaded NGAL served as a positive control. Ferric citrate (1 mM) or Ent:iron (500 μM) served as competitors of ^55Fe binding.
After 60 minutes at room temperature, the mixture was then washed 3 times on a 10-kDa membrane (Amicon YM-10; Millipore Corp.). Ngal loaded with iron-free enterochelin (rather than apo-Ngal) served as a positive control for iron capture. Ferric citrate (1 mM) or iron-loaded enterochelin (siderophore:Fe, […]) was used as a competitor of 55Fe binding.

[3] = Siderophore:iron binding assay (paper chromatography); settings: for Fe: Chromatography: 55Fe mobilised by compound on paper chromatogram developed in water, Yes/No
Source text: Siderophore:Iron Binding Assay. To test whether candidates bound iron directly, candidates (1 nmole) were mixed with ^55Fe (1 pmole), and then separated bound from free ^55Fe using paper chromatography developed in water.
Paper chromatography: The Fe-Siderophore Binding Assay: The concept underlying the Ngal-siderophore-Fe binding assay is that the urinary molecule provides an iron binding siderophore, and that the Ngal protein provides the carrier which retains the siderophore:Fe on the 10 KDa filter. […] To directly test this idea, we will mix 55Fe with HMDB compounds and then separate bound from free 55Fe by using paper chromatography. […] The assay also provides an independent means to follow the purification of the urinary siderophore. Using this assay, we can measure the specific activity of the fractions to identify the peak activity, as well as to compare the urinary fraction with enterochelin to establish relative units of activity.

[4] = Catechol sulfate stability followed by silica gel TLC; assay type: physicochemical
Source text: FIG. 29 is a reproduction of Silical gel TLC developed by Dichlorlmethane: MeOH:H2O=5:1:0.1, and colored by 12.

Mouse stromal cells = experiment: Capture of NGAL:siderophore:55Fe by stromal cells; assay type: cell-based; settings: bafilomycin inhibits vacuolar H+ ATPase
Protocol: Capture of NGAL:Siderophore:Iron. Mouse stromal cells (10^5) were grown in MEM, 10% FCS for 24 hrs and FCS subsequently removed. […] Cells were washed 3 times and extracted with 0.2% SDS.

NGAL [5] = biological target: T1, NGAL; experiment: Fluorescence quenching binding assay
Protocol: Fluorescence quenching binding assay. […] The pH was adjusted until the fluorescence signal stopped changing, while fluorescence values were corrected for dilution. […] Control experiments were performed to ensure the stability of the protein at experimental conditions, including the dilution and the addition of DMSO and ubiquitin.

T1 sequence (P80188 21-198): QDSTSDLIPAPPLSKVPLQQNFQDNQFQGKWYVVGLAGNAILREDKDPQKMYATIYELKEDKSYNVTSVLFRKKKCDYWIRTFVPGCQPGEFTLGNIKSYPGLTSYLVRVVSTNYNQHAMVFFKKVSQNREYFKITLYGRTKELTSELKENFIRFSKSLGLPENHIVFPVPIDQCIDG

Cc1cccc(O)c1O [3-methylcatechol]
pH at which the NGAL:ligand:iron complex dissociates (NGAL [1]): 5.5 pH
NGAL: Chelator: Fe % Retention (NGAL [2]): 56%
NGAL-siderophore-Fe binding activity (in words) (NGAL [2]): highest activities
Fe: Chromatography [3]: Yes

O=S(=O)([O-])Oc1ccccc1O.[Na+]
NGAL: Chelator: Fe % Retention (NGAL [2]): 4%
stability in methanol at pH≦6 ([4]; incubated for 1 hour): decompose
stability in urine ([4]; incubated for 48 hours): stable

O=C(/C=C/c1ccc(O)c(O)c1)OCCc1ccccc1 [Caffeic acid phenethyl ester]
NGAL: Chelator: Fe % Retention (NGAL [2]): 8%
Fe: Chromatography [3]: No

O=C(O)CNC(=O)c1ccco1 [2-Furoylglycine]
NGAL: Chelator: Fe % Retention (NGAL [2]): 6%
Fe: Chromatography [3]: No

COc1ccccc1O [Guaiacol]
NGAL: Chelator: Fe % Retention (NGAL [2]): 4%
Fe: Chromatography [3]: No

CO/C1=C\C(C)=C\[C@@H](C)[C@@H](O)[C@@H](C)C/C(C)=C/C=C/[C@H](OC)[C@@H]([C@@H](C)[C@@H](O)[C@H](C)[C@@]2(O)C[C@@H](O)[C@H](C)[C@@H](C(C)C)O2)OC1=O [bafilomycin]
iron donation from NGAL:catechol:iron complex to cells (Mouse stromal cells): blocked

CCC1C(=O)NC(CC2=N/C(=C\c3[nH]c(CC4NC(=O)C(C)C4CC)c(C)c3CCC(=O)O)C(CCC(=O)O)=C2C)C1C (stereo not drawn) [Urobilin HCl]
NGAL: Chelator: Fe % Retention (NGAL [2]): 3%
Fe: Chromatography [3]: No

O=C(O)Cc1cc(O)ccc1O [Homogentisic acid]
NGAL: Chelator: Fe % Retention (NGAL [2]): 7%
Fe: Chromatography [3]: No

C=CC1=C(C)C(/C=c2/[nH]/c(=C\c3[nH]c(/C=C4\NC(=O)C(C)=C4C=C)c(C)c3CCC(=O)O)c(CCC(=O)O)c2C)NC1=O (stereo not drawn) [Biliverdin HCl]
NGAL: Chelator: Fe % Retention (NGAL [2]): 9%
Fe: Chromatography [3]: No

Oc1cccc(O)c1O [Benzene 1,2,3 Trial (Pyrogallol)]
NGAL: Chelator: Fe % Retention (NGAL [2]): 73%
NGAL-siderophore-Fe binding activity (in words) (NGAL [2]): highest activities
Fe: Chromatography [3]: Yes

NC(=O)c1ccc[n+]([C@@H]2O[C@H](COP(=O)(O)OP(=O)(O)OC[C@H]3O[C@@H](n4cnc5c(N)ncnc54)[C@H](OP(=O)(O)O)[C@@H]3O)[C@@H](O)[C@H]2O)c1 [NADP]
NGAL: Chelator: Fe % Retention (NGAL [2]): 7%
iron chelating activity by paper chromatography (in words) [3]: active
Fe: Chromatography [3]: Yes

NC(=O)c1ccc[n+]([C@@H]2O[C@H](COP(=O)(O)OP(=O)(O)OC[C@H]3O[C@@H](n4cnc5c(N)ncnc54)[C@H](O)[C@@H]3O)[C@@H](O)[C@H]2O)c1 [NAD]
NGAL: Chelator: Fe % Retention (NGAL [2]): 12%
Fe: Chromatography [3]: No

O=C(O)c1cccnc1 [Nicotinic acid]
NGAL: Chelator: Fe % Retention (NGAL [2]): 3%
Fe: Chromatography [3]: No

COc1ccccc1OC [1,2-Dimethoxybenzene]
NGAL: Chelator: Fe % Retention (NGAL [2]): 3%
Fe: Chromatography [3]: No

O=C(O[C@@H]1Cc2c(O)cc(O)cc2O[C@@H]1c1cc(O)c(O)c(O)c1)c1cc(O)c(O)c(O)c1 [(−) Epigallocatechin gallate]
NGAL: Chelator: Fe % Retention (NGAL [2]): 45%
NGAL-siderophore-Fe binding activity (in words) (NGAL [2]): active
iron chelating activity by paper chromatography (in words) [3]: active
Fe: Chromatography [3]: Yes

Nc1nc2[nH]cc(CNc3ccc(C(=O)N[C@@H](CCC(=O)O)C(=O)O)cc3)nc-2c(=O)n1 [Folic acid]
NGAL: Chelator: Fe % Retention (NGAL [2]): 3%
Fe: Chromatography [3]: No

O=C1CC(C(=O)O)NC(=O)N1 (racemic) [DL- Dihdroorotic acid]
NGAL: Chelator: Fe % Retention (NGAL [2]): 7%
Fe: Chromatography [3]: No

COc1cc(/C=C/C(=O)O)ccc1O [Ferulic acid]
NGAL: Chelator: Fe % Retention (NGAL [2]): 3%
Fe: Chromatography [3]: No

N[C@@H](Cc1c[nH]c2ccc(O)cc12)C(=O)O [5-Hydroxytryptophan]
NGAL: Chelator: Fe % Retention (NGAL [2]): 4%
Fe: Chromatography [3]: No

Cc1ncc(CO)c(C(=O)O)c1O [4-Pyridoxic Acid]
NGAL: Chelator: Fe % Retention (NGAL [2]): 12%
Fe: Chromatography [3]: No

NC(Cc1ccc(O)c(O)c1)C(=O)O (racemic) [3,4-Dihydroxy-DL-phenylalanine]
NGAL: Chelator: Fe % Retention (NGAL [2]): 12%
iron chelating activity by paper chromatography (in words) [3]: active
Fe: Chromatography [3]: Yes

O=C(O)/C=C/c1ccc(O)c(O)c1 [Caffeic acid]
NGAL: Chelator: Fe % Retention (NGAL [2]): 7%
Fe: Chromatography [3]: No

Cc1ncc(CO)c(C=O)c1O [Pyridoxal]
NGAL: Chelator: Fe % Retention (NGAL [2]): 1%
Fe: Chromatography [3]: No

NCC(=O)CCC(=O)O [5-Aminolevulinic acid]
NGAL: Chelator: Fe % Retention (NGAL [2]): 3%
Fe: Chromatography [3]: No

CC(=O)NC(CC(=O)O)c1ccccc1 (racemic) [N-Acetyl-DL-Â- phenylalanine]
NGAL: Chelator: Fe % Retention (NGAL [2]): 5%
Fe: Chromatography [3]: No

NC(=O)C1=CN([C@@H]2O[C@H](COP(=O)(O)OP(=O)(O)OC[C@H]3O[C@@H](n4cnc5c(N)ncnc54)[C@H](OP(=O)(O)O)[C@@H]3O)[C@@H](O)[C@H]2O)C=CC1 [NADPH]
NGAL: Chelator: Fe % Retention (NGAL [2]): 3%
Fe: Chromatography [3]: Yes

O=C([O-])CC(O)(CC(=O)[O-])C(=O)[O-].[Na+].[Na+].[Na+] [Citric acid sodium]
NGAL: Chelator: Fe % Retention (NGAL [2]): 6%
iron chelating activity by paper chromatography (in words) [3]: active
Fe: Chromatography [3]: Yes

Nc1c(O)cccc1C(=O)CC(N)C(=O)O (racemic) [3-Hydroxy-DL-kynurenine]
NGAL: Chelator: Fe % Retention (NGAL [2]): 3%
iron chelating activity by paper chromatography (in words) [3]: active
Fe: Chromatography [3]: Yes

NCC(=O)c1ccc(O)c(O)c1 (racemic) [DL- Norepinephrine•HCl]
NGAL: Chelator: Fe % Retention (NGAL [2]): 5%
Fe: Chromatography [3]: No

COc1cccc(C(=O)O)c1OC [2,3 Dimethoxybenzoic acid]
NGAL: Chelator: Fe % Retention (NGAL [2]): 6%
Fe: Chromatography [3]: No

Cc1ccc(O)c(O)c1 [4-methylcatechol]
affinity for NGAL (in words) (NGAL [5]): low affinity
NGAL: Chelator: Fe % Retention (NGAL [2]): 29%
NGAL-siderophore-Fe binding activity (in words) (NGAL [2]): highest activities
Fe: Chromatography [3]: Yes

N[C@@H](Cc1c[nH]c2ccccc12)C(=O)O [L-Tryptophan]
NGAL: Chelator: Fe % Retention (NGAL [2]): 5%
Fe: Chromatography [3]: No

O=C(O)c1cc(O)ccc1O [Gentistic Acid]
NGAL: Chelator: Fe % Retention (NGAL [2]): 6%
Fe: Chromatography [3]: No

NCc1[nH]cc(CCC(=O)O)c1CC(=O)O [Porphobilinogen]
NGAL: Chelator: Fe % Retention (NGAL [2]): 3%
Fe: Chromatography [3]: No

O=C(O)c1cc(=O)[nH]c(=O)[nH]1 [Orotic acid]
NGAL: Chelator: Fe % Retention (NGAL [2]): 13%
Fe: Chromatography [3]: No
